Results: patent US7737155B2, “Nitrogen-containing heterocyclic compounds and methods of use thereof” (Schering Corporation, priority 2005, dated 2010)

target: recombinant human nicotinic acid receptor (NAR) (Homo sapiens, UniProt Q8TDS4); experiment: Nicotinic Acid Receptor Assay: inhibition of forskolin-stimulated cAMP accumulation in CHO cells (MesoScale Discovery cAMP kit); format: cell-based; conditions: CHO cells expressing recombinant human NAR; forskolin-stimulated cAMP; read-out: NA EC50 camp
Sequence (Q8TDS4 whole entry): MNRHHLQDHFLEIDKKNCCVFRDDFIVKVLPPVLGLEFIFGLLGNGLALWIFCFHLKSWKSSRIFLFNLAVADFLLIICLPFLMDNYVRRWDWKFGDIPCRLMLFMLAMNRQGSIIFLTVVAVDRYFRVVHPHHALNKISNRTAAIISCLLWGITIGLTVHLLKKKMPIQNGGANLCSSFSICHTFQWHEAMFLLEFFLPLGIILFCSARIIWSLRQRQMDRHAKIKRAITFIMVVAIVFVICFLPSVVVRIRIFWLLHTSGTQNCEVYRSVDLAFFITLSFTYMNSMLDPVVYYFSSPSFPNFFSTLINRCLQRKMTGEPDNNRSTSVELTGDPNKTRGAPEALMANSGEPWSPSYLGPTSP
Protocol: The nicotinic acid receptor agonist activity of the inventive compounds was determined by following the inhibition of forskolin-stimulated cAMP accumulation in cells using the MesoScale Discovery cAMP detection kit following the manufacture's protocol. Briefly, Chinese Hamster Ovary (CHO) cells expressing recombinant human nicotinic acid receptor (NAR) were harvested enzymatically, washed 1× in phosphate buffered saline (PBS) and resuspended in PBS containing 0.5 mM IBMX at 3×10^6 cells/mL. Ten μL of cell suspension was added to each well of a 384-well plate which contained 10 μL of test compounds. Test compounds were diluted with PBS containing 6 μM of forskolin. Plates were incubated for 30 minutes at room temperature after the addition of cells. Lysis buffer containing cAMP-Tag was added to each well (10 μL/well) as per the manufacturer's protocol. Plates were then incubated from 45 minutes to overnight. Prior to reading, 10 μL of read buffer was added to each well, and the plate was read in a Sector 6000 plate imager. The signal was converted to cAMP concentration using a standard curve run on each plate.

Row | SMILES | EC50 [nM]
1 | O=c1[nH]c(=O)c2c(CCC34CC5CC(CC(C5)C3)C4)cc(=O)oc2[nH]1 [Compound 215] | > 1000
2 | O=c1[nH]c(=O)c2c(CC3C[C@@H]4CC[C@H]3C4)cc(=O)oc2[nH]1 (stereo partly drawn) [Compound 201] | > 1000
3 | CCc1cc(=O)oc2nc(OCc3ncccc3C)[nH]c(=O)c12 [Compound 556] | > 1000
4 | CCc1cc(=O)oc2nc(OCC#Cc3ccccc3)[nH]c(=O)c12 [Compound 522] | 100 to 1000
5 | CCc1cc(=O)oc2nc(OCC3CCCCO3)[nH]c(=O)c12 (stereo not drawn) [Compound 593] | > 1000
6 | CC(C)CCc1cc(=O)oc2[nH]c(=O)n(C3CCC3)c(=O)c12 [Compound 245] | 0.001 to 100
7 | CCc1cc(=O)oc2nc(OCc3nn(-c4ccccc4)nc3C)[nH]c(=O)c12 [Compound 535] | 100 to 1000
8 | CCc1cc(=O)oc2nc(OCc3cc(Br)cs3)[nH]c(=O)c12 [Compound 534] | 100 to 1000
9 | CCc1cc(=O)oc2nc(OCc3ccc4c(c3)nnn4C)[nH]c(=O)c12 [Compound 543] | 100 to 1000
10 | CCc1cc(=O)oc2nc(OCC3CCCCN3C)[nH]c(=O)c12 (stereo not drawn) [Compound 594] | > 1000
11 | CCc1cc(=O)oc2nc(OCC#CC(CC)OC)[nH]c(=O)c12 (stereo not drawn) [Compound 669] | 100 to 1000
12 | O=c1[nH]c(=O)c2c(CCCC3CCCC3)cc(=O)oc2[nH]1 [Compound 297] | 0.001 to 100
13 | CCn1c(=O)[nH]c2oc(=O)cc(CCC3CC3)c2c1=O [Compound 278] | 100 to 1000
14 | O=c1[nH]c(=O)c2c(CCC(C3CC3)C3CC3)cc(=O)oc2[nH]1 [Compound 293] | 100 to 1000
15 | CCc1cc(=O)oc2nc(OCc3ccc(-n4cncn4)cc3)[nH]c(=O)c12 [Compound 628] | > 1000
16 | CCc1cc(=O)oc2nc(OCCOc3ccccc3)[nH]c(=O)c12 [Compound 525] | 100 to 1000
17 | CCC(C)(C)Cc1cc(=O)oc2[nH]c(=O)[nH]c(=O)c12 [Compound 204] | > 1000
18 | CCc1cc(=O)oc2nc(OCc3ccc4ccccc4n3)[nH]c(=O)c12 [Compound 527] | 100 to 1000
19 | CCc1cc(=O)oc2nc(OCc3ccncc3)[nH]c(=O)c12 [Compound 523] | 0.001 to 100
20 | CCCCc1cc(=O)oc2nc(OCc3ccccn3)[nH]c(=O)c12 [Compound 682] | > 1000
21 | Cc1cc(=O)oc2nc(OCc3csc4ccccc34)[nH]c(=O)c12 [Compound 690] | > 1000
22 | CCOC(=O)NOc1nc2oc(=O)cc(CCC3CC3)c2c(=O)[nH]1 [Compound 696] | 100 to 1000
23 | Cc1ccccc1-c1cc(CCCc2cc(=O)oc3[nH]c(=O)[nH]c(=O)c23)on1 [Compound 243] | 100 to 1000
24 | O=c1[nH]c(=O)c2c(CCCOc3ccccc3)cc(=O)oc2[nH]1 [Compound 208] | > 1000
25 | CCC#CC(C)Oc1nc2oc(=O)cc(CC)c2c(=O)[nH]1 (stereo not drawn) [Compound 639] | 100 to 1000
26 | O=c1cc(CCC2CC2)c2c(=O)[nH]c(=O)n(C3CCC3)c2o1 [Compound 274] | 100 to 1000
27 | CCc1cc(=O)oc2nc(OCc3ccccc3-n3cncn3)[nH]c(=O)c12 [Compound 571] | 100 to 1000

Row | SMILES | EC50 [nM]
28 | CCc1cc(=O)oc2nc(OCc3cnoc3C)[nH]c(=O)c12 [Compound 668] | > 1000
29 | CCOc1ccc(-c2c(CCC3CCC3)c3c(=O)[nH]c(=O)[nH]c3oc2=O)cc1 [Compound 703] | > 1000
30 | CCc1cc(=O)oc2nc(OCCOc3cc(C(F)(F)F)ccn3)[nH]c(=O)c12 [Compound 602] | 100 to 1000
31 | CC/C=C\CCc1cc(=O)oc2[nH]c(=O)n(CC3CC3)c(=O)c12 [Compound 254] | > 1000
32 | CCc1noc(C)c1COc1nc2oc(=O)cc(CCC3CCCC3)c2c(=O)[nH]1 [Compound 689] | 100 to 1000
33 | CCc1cc(=O)oc2nc(OC[C@H](C)OC)[nH]c(=O)c12 [Compound 632] | 100 to 1000
34 | CC/C=C\CCc1cc(=O)oc2c1c(=O)[nH]c(=O)n2CC1CC1 [Compound 253] | > 1000
35 | CCc1cc(=O)oc2nc(OCc3ccc(C#N)cc3)[nH]c(=O)c12 [Compound 630] | > 1000
36 | CCc1cc(=O)oc2nc(OC3CCSCC3)[nH]c(=O)c12 [Compound 605] | > 1000
37 | CCCC(C)c1cc(=O)oc2[nH]c(=O)[nH]c(=O)c12 (stereo not drawn) [Compound 218] | 100 to 1000
38 | CCc1cc(=O)oc2nc(OCc3ccccc3-c3ccc(F)c(C#N)c3)[nH]c(=O)c12 [Compound 584] | 100 to 1000
39 | CC(C)CCc1cc(=O)oc2[nH]c(=O)n(CC3CC3)c(=O)c12 [Compound 260] | > 1000
40 | CCc1cc(=O)oc2nc(OCc3ccnc(NC(=O)C(C)(C)C)c3)[nH]c(=O)c12 [Compound 653] | > 1000
41 | CCOc1nc2oc(=O)cc(CCC3CCCC3)c2c(=O)[nH]1 [Compound 687] | 100 to 1000
42 | O=c1[nH]c(=O)c2c(C3CCCC3)cc(=O)oc2[nH]1 [Compound 227] | > 1000
43 | O=c1cc(CCC2CCCC2)c2c(=O)[nH]c(=O)n(C3CCC3)c2o1 [Compound 242] | > 1000
44 | O=c1[nH]c(=O)c2c(CCCOCC3CC3)cc(=O)oc2[nH]1 [Compound 273] | 100 to 1000
45 | CCc1cc(=O)oc2nc(OCC#CC(O)CC)[nH]c(=O)c12 (stereo not drawn) [Compound 671] | 0.001 to 100
46 | CCc1cc(=O)oc2nc(OCC#Cc3cccc(Cl)c3)[nH]c(=O)c12 [Compound 626] | 0.001 to 100
47 | CCc1cc(=O)oc2nc(OCc3ccc(-c4ccccn4)s3)[nH]c(=O)c12 [Compound 648] | 100 to 1000
48 | CCc1cc(=O)oc2nc(OCc3cccc(-c4ccccc4)n3)[nH]c(=O)c12 [Compound 520] | > 1000
49 | CCc1cc(=O)oc2nc(OCc3cccc(-c4cccnc4)c3)[nH]c(=O)c12 [Compound 563] | 100 to 1000
50 | CCc1cc(=O)oc2nc(OCC(C)(O)c3ccccc3)[nH]c(=O)c12 (stereo not drawn) [Compound 599] | 100 to 1000
51 | CCc1cc(=O)oc2nc(OCc3c(-c4ccccc4)noc3C)[nH]c(=O)c12 [Compound 526] | 100 to 1000
52 | CCc1cc(=O)oc2nc(OCCN3CCCC3)[nH]c(=O)c12 [Compound 579] | > 1000
53 | O=c1[nH]c(=O)c2c(CCCOC3CCCCC3)cc(=O)oc2[nH]1 [Compound 287] | > 1000

same assay, conditions: NA EC50 camp (nM), CHO cells expressing recombinant human NAR; forskolin-stimulated cAMP

Row | SMILES | EC50 [nM]
54 | CCc1cc(=O)oc2nc(OCc3ccc(-c4cncnc4)cc3F)[nH]c(=O)c12 [Compound 575] | 100 to 1000
55 | CCc1noc(CC)c1COc1nc2oc(=O)cc(CC)c2c(=O)[nH]1 [Compound 667] | 100 to 1000
56 | CCC#CCOc1nc2oc(=O)cc(CC)c2c(=O)[nH]1 [Compound 512] | 0.001 to 100
57 | CCCC#CCOc1nc2oc(=O)cc(CC)c2c(=O)[nH]1 [Compound 557] | 0.001 to 100

same assay, conditions: NA EC50 camp, inhibition of forskolin-stimulated cAMP accumulation, CHO cells expressing recombinant human NAR

Row | SMILES | EC50 [nM]
58 | CCCCCc1cc(=O)oc2nc(C(F)F)[nH]c(=O)c12 [Compound 743] | 212
59 | CCCCc1cc(=O)oc2nc(C(F)F)[nH]c(=O)c12 [Compound 750] | 1890
60 | O=c1cc(CCCC2CC2)c2c(=O)[nH]c(C(F)F)nc2o1 [Compound 740] | 130
61 | O=c1cc(CCC2CCC2)c2c(=O)[nH]c(C(F)F)nc2o1 [Compound 748] | 286

same assay, conditions: inhibition of forskolin-stimulated cAMP accumulation, CHO cells expressing recombinant human NAR; read-out: NA EC50 camp

Row | SMILES | EC50 [nM]
62 | COn1c(=O)[nH]c(=O)c2c(CCC3CCC3)cc(=O)oc21 [Compound 771] | 17
63 | CCCCc1cc(=O)oc2[nH]c(=O)n(O)c(=O)c12 [Compound 806] | 256
64 | O=c1nc(OCC(F)F)c2c(CCC3CCC3)cc(=O)oc2[nH]1 [Compound 830] | 112
65 | CCc1cc(=O)oc2[nH]c(=O)n(OC)c(=O)c12 [Compound 768] | 384
66 | O=c1[nH]c(=O)c2c(CCCC3CCCC3)cc(=O)oc2[nH]1 [Compound 297] | 56.7
67 | O=c1[nH]c(=O)c2c(CC3CC3)cc(=O)oc2[nH]1 [Compound 117] | 155
68 | O=c1nc(OCCF)c2c(CCCC3CC3)cc(=O)oc2[nH]1 [Compound 824] | 91
69 | CCCCc1cc(=O)oc2[nH]c(=O)n(CC(F)F)c(=O)c12 [Compound 821] | 142
70 | O=c1nc(OCF)c2c(CCCC3CC3)cc(=O)oc2[nH]1 [Compound 789] | 88
71 | CCCCc1cc(=O)oc2[nH]c(=O)n(C(F)F)c(=O)c12 [Compound 816] | 291
72 | CCc1cc(=O)n(C)c2[nH]c(=O)[nH]c(=O)c12 [Compound 808] | > 10000
73 | O=c1cc(CCC2CC2)c2c(=O)[nH]c(CF)nc2o1 [Compound 753] | 228
74 | CSCCCc1cc(=O)oc2nc(CF)[nH]c(=O)c12 [Compound 751] | 487
75 | CCc1cc(=O)oc2nc(OCC#CC(C)OC)[nH]c(=O)c12 (stereo not drawn) [Compound 723] | 296
76 | COn1c(=O)[nH]c2oc(=O)cc(CCC3CCC3)c2c1=O [Compound 769] | 19
77 | CCCCc1cc(=O)oc2c1c(=O)[nH]c(=O)n2O [Compound 805] | 2060
78 | O=c1cc(CCCC2CC2)c2c(=O)n(C3CCC3)c(=O)[nH]c2o1 [Compound 784] | 17.9
79 | CCCCc1cc(=O)oc2[nH]c(=O)nc(OCC(F)F)c12 [Compound 828] | 407
80 | CCCCc1cc(=O)oc2nc(OCC#CC(O)CC)[nH]c(=O)c12 (stereo not drawn) [Compound 736] | 32.9
81 | Cc1cc(=O)oc2nc(CF)[nH]c(=O)c12 [Compound 810] | > 10000
82 | N#Cc1c(CCCC2CC2)c2c(=O)[nH]c(=O)[nH]c2oc1=O [Compound 759] | 2330
83 | CCCCc1cc(=O)oc2nc(C(F)(F)F)[nH]c(=O)c12 [Compound 764] | 8920
84 | O=c1cc(CCCC2CC2)c2c(=O)n(CCF)c(=O)[nH]c2o1 [Compound 804] | 178
